The assay has as its system Normal human melanocyte. The assay is described as follows: Inhibitory action on the elongation of dendrites using human melanocytes. The format is cell-based. The source says: According to a method shown below, inhibitory action on the elongation of dendrites was examined using human melanocytes. (Reagent, etc.) Cells, basal media, and amplification additives were purchased from KURABO INDUSTRIES LTD.
(Cell) Normal human melanocyte
(Medium) Basal medium (Medium 1545) supplemented with reagents described below
(Reagent) Amplification additive: bovine pituitary extract (BPE) (final concentration of 0.4% v/v in the medium), fetal bovine serum (FBS) (final concentration of 0.5% v/v in the medium), human recombinant basic fibroblast growth factor (rFGF-B) (final concentration of 3 ng/ml in the medium), hydrocortisone (final concentration of 0.18 μg/ml in the medium), insulin (final concentration 5 μg/ml in the medium), transferrin (final concentration of 5 μg/ml in the medium), phorbol 12-myristate 13-acetate (PMA) (final concentration of 10 ng/ml in the medium), heparin (final concentration of 3 μg/ml in the medium), and PSA solution (mixture solution of penicillin concentration of 50,000 Unit/ml, streptomycin concentration of 50 μg/ml, and amphotericin B concentration of 12.5 μg/ml; 1-ml addition with respect to 500 ml of the medium) (Method) […]

Consider `COc1ccc(-c2oc3cc(O)c(OC)c(O)c3c(=O)c2OC)cc1O` [Centaureidin, 5,7-dihydroxy-3,6-dimethoxy-2-(5-hydroxy-4-methoxyphenyl)-4H-1-benzopyran-4-on], for which the “Inhibition against the elongation of dendrites (in words)” value (24 hours after addition of the sample solution, versus control) is recorded as “elongation is inhibited”. Moreover, the Length of dendrite (sample solution with 100 μg/ml Centaureidin, 50 μl added to 200 μl medium, observed 24 hours after addition, growth factor-supplemented medium) came to 26 ± 8 μm.

These data come from patent US8183283B2, “Dendrite elongation inhibitor for melanocyte and skin preparation for external use containing the same” (Pola Chemical Industries Inc., priority 2002, dated 2012).
